Test results published in the NIST ThermoML archive (doi:10.1021/je049612f).
± gives the expanded uncertainty stated by the source.

Settings: Gas, Vibrating wire viscometry

FS(F)(F)(F)(F)F [sulfur hexafluoride]
Settings	viscosity [mPa·s]
300 K, 26.36 kPa	0.01529 ± 0.00089
300 K, 50.94 kPa	0.01531 ± 0.00089
300 K, 73.62 kPa	0.01532 ± 0.00089
300 K, 105.89 kPa	0.01532 ± 0.00089
300 K, 125.7 kPa	0.01533 ± 0.00089
300 K, 152.62 kPa	0.01533 ± 0.00089
300 K, 177.62 kPa	0.01533 ± 0.00089
300 K, 195.25 kPa	0.01534 ± 0.00089
300 K, 227.52 kPa	0.01534 ± 0.00089
300 K, 251.51 kPa	0.01535 ± 0.00089
300 K, 278.58 kPa	0.01535 ± 0.00089
300 K, 301.45 kPa	0.01535 ± 0.00089
300 K, 327.3 kPa	0.01536 ± 0.00089
300 K, 353.41 kPa	0.01536 ± 0.00089
300 K, 378.55 kPa	0.01537 ± 0.00089
300 K, 401.57 kPa	0.01537 ± 0.00089
300 K, 425.72 kPa	0.01538 ± 0.00089
300 K, 444.52 kPa	0.01538 ± 0.00089
300 K, 471.71 kPa	0.01539 ± 0.00089
300 K, 491.53 kPa	0.0154 ± 0.00089
300 K, 538.31 kPa	0.01541 ± 0.00089
300 K, 565.24 kPa	0.01542 ± 0.00089
300 K, 597.98 kPa	0.01543 ± 0.00089
300 K, 634.58 kPa	0.01544 ± 0.00089
300 K, 665.1 kPa	0.01545 ± 0.00089
300 K, 700.96 kPa	0.01546 ± 0.00089
300 K, 731.45 kPa	0.01547 ± 0.00089
300 K, 763.98 kPa	0.01548 ± 0.00089
300 K, 800.2 kPa	0.01549 ± 0.00089
300 K, 835.89 kPa	0.01551 ± 0.00089
300 K, 869.95 kPa	0.01553 ± 0.00089
300 K, 898.41 kPa	0.01554 ± 0.00089
300 K, 930.75 kPa	0.01556 ± 0.00089
300 K, 968.74 kPa	0.01558 ± 0.00089
300 K, 997.76 kPa	0.01559 ± 0.00089
300 K, 1036.4 kPa	0.01561 ± 0.0009
300 K, 1090.2 kPa	0.01565 ± 0.0009
300 K, 1140.1 kPa	0.01568 ± 0.0009
300 K, 1181.5 kPa	0.0157 ± 0.0009
300 K, 1223.6 kPa	0.01574 ± 0.0009
300 K, 1280.6 kPa	0.01578 ± 0.0009
300 K, 1333.3 kPa	0.01582 ± 0.0009
300 K, 1380.9 kPa	0.01586 ± 0.0009
300 K, 1417.9 kPa	0.01589 ± 0.0009
300 K, 1493.3 kPa	0.01596 ± 0.0009
300 K, 1537.7 kPa	0.016 ± 0.0009
300 K, 1594.6 kPa	0.01606 ± 0.0009
300 K, 1637.3 kPa	0.01611 ± 0.0009
300 K, 1680.6 kPa	0.01616 ± 0.0009
300 K, 1735.3 kPa	0.01622 ± 0.0009
300 K, 1784.4 kPa	0.01629 ± 0.0009
300 K, 1826.5 kPa	0.01635 ± 0.0009
300 K, 1865.1 kPa	0.01641 ± 0.0009
300 K, 1927.3 kPa	0.0165 ± 0.0009
300 K, 1980 kPa	0.01659 ± 0.0009
300 K, 2039.3 kPa	0.0167 ± 0.0009
316 K, 112.75 kPa	0.01605 ± 0.0009
316 K, 143.54 kPa	0.01605 ± 0.0009
316 K, 174.6 kPa	0.01606 ± 0.0009
316 K, 197.59 kPa	0.01606 ± 0.0009
316 K, 218.05 kPa	0.01607 ± 0.0009
316 K, 245.03 kPa	0.01607 ± 0.0009
316 K, 262.84 kPa	0.01607 ± 0.0009
316 K, 287.46 kPa	0.01608 ± 0.0009
316 K, 307.35 kPa	0.01608 ± 0.0009
316 K, 332.06 kPa	0.01609 ± 0.0009
316 K, 357.7 kPa	0.0161 ± 0.0009
316 K, 383.76 kPa	0.0161 ± 0.0009
316 K, 402.43 kPa	0.01611 ± 0.0009
316 K, 428.01 kPa	0.01611 ± 0.0009
316 K, 468.39 kPa	0.01613 ± 0.0009
316 K, 490.91 kPa	0.01613 ± 0.0009
316 K, 519.48 kPa	0.01614 ± 0.0009
316 K, 548.34 kPa	0.01615 ± 0.0009
316 K, 585.01 kPa	0.01616 ± 0.0009
316 K, 614.48 kPa	0.01617 ± 0.0009
316 K, 650.85 kPa	0.01618 ± 0.0009
316 K, 685.07 kPa	0.0162 ± 0.0009
316 K, 712.63 kPa	0.0162 ± 0.0009
316 K, 749.05 kPa	0.01622 ± 0.0009
316 K, 780.4 kPa	0.01623 ± 0.0009
316 K, 810.74 kPa	0.01624 ± 0.0009
316 K, 843.2 kPa	0.01626 ± 0.0009
316 K, 882.81 kPa	0.01628 ± 0.0009
316 K, 913.9 kPa	0.01629 ± 0.0009
316 K, 955.92 kPa	0.01631 ± 0.0009
316 K, 994.72 kPa	0.01634 ± 0.0009
316 K, 1031.1 kPa	0.01635 ± 0.0009
316 K, 1084.1 kPa	0.01638 ± 0.0009
316 K, 1120.4 kPa	0.01641 ± 0.0009
316 K, 1178.3 kPa	0.01644 ± 0.0009
316 K, 1215.2 kPa	0.01646 ± 0.0009
316 K, 1257.3 kPa	0.0165 ± 0.0009
316 K, 1314.3 kPa	0.01654 ± 0.0009
316 K, 1374.4 kPa	0.01658 ± 0.0009
316 K, 1422.9 kPa	0.01662 ± 0.0009
316 K, 1465.6 kPa	0.01665 ± 0.0009
316 K, 1530.4 kPa	0.01671 ± 0.0009
316 K, 1572.7 kPa	0.01674 ± 0.0009
316 K, 1609.8 kPa	0.01678 ± 0.0009
316 K, 1667.2 kPa	0.01684 ± 0.0009
316 K, 1724.2 kPa	0.01689 ± 0.0009
316 K, 1772.5 kPa	0.01694 ± 0.00091
316 K, 1821.1 kPa	0.017 ± 0.00091
316 K, 1860.3 kPa	0.01704 ± 0.00091
316 K, 1922.7 kPa	0.01711 ± 0.00091
316 K, 1988.5 kPa	0.0172 ± 0.00091
316 K, 2021.6 kPa	0.01725 ± 0.00091
316 K, 2087.4 kPa	0.01733 ± 0.00091
316 K, 2155.2 kPa	0.01744 ± 0.00091
316 K, 2223.8 kPa	0.01755 ± 0.00091
316 K, 2273.2 kPa	0.01763 ± 0.00091
316 K, 2319.1 kPa	0.01771 ± 0.00091
316 K, 2375.8 kPa	0.01781 ± 0.00091
316 K, 2448.5 kPa	0.01796 ± 0.00091
316 K, 2510 kPa	0.01809 ± 0.00092
316 K, 2587.2 kPa	0.01826 ± 0.00092
316 K, 2658.2 kPa	0.01844 ± 0.00092
316 K, 2724.3 kPa	0.01862 ± 0.00092
316 K, 2792.7 kPa	0.01883 ± 0.00092
316 K, 2860.9 kPa	0.01906 ± 0.00092
316 K, 2916.5 kPa	0.01925 ± 0.00092
316 K, 2981.1 kPa	0.0195 ± 0.00093
316 K, 3007.9 kPa	0.01963 ± 0.00093
316 K, 3070 kPa	0.01992 ± 0.00093
316 K, 3135.2 kPa	0.02025 ± 0.00093
321 K, 77.46 kPa	0.01627 ± 0.0009
321 K, 97.02 kPa	0.01627 ± 0.0009
321 K, 114.16 kPa	0.01627 ± 0.0009
321 K, 146.57 kPa	0.01628 ± 0.0009
321 K, 169.96 kPa	0.01629 ± 0.0009
321 K, 205.62 kPa	0.01629 ± 0.0009
321 K, 239.58 kPa	0.0163 ± 0.0009
321 K, 264.1 kPa	0.0163 ± 0.0009
321 K, 293.39 kPa	0.01631 ± 0.0009
321 K, 339.65 kPa	0.01632 ± 0.0009
321 K, 374.89 kPa	0.01633 ± 0.0009
321 K, 400.93 kPa	0.01634 ± 0.0009
321 K, 428.98 kPa	0.01634 ± 0.0009
321 K, 457.31 kPa	0.01635 ± 0.0009
321 K, 488.99 kPa	0.01636 ± 0.0009
321 K, 523.86 kPa	0.01637 ± 0.0009
321 K, 563.16 kPa	0.01638 ± 0.0009
321 K, 592.18 kPa	0.01639 ± 0.0009
321 K, 633.22 kPa	0.01641 ± 0.0009
321 K, 681.18 kPa	0.01643 ± 0.0009
321 K, 732.46 kPa	0.01644 ± 0.0009
321 K, 790.88 kPa	0.01647 ± 0.0009
321 K, 823.55 kPa	0.01648 ± 0.0009
321 K, 857.52 kPa	0.0165 ± 0.0009
321 K, 896.2 kPa	0.01652 ± 0.0009
321 K, 934.23 kPa	0.01654 ± 0.0009
321 K, 969 kPa	0.01655 ± 0.0009
321 K, 1031.4 kPa	0.01658 ± 0.0009
321 K, 1089.4 kPa	0.01662 ± 0.0009
321 K, 1125 kPa	0.01664 ± 0.0009
321 K, 1178.7 kPa	0.01667 ± 0.0009
321 K, 1223.2 kPa	0.0167 ± 0.0009
321 K, 1282.4 kPa	0.01674 ± 0.0009
321 K, 1340 kPa	0.01678 ± 0.0009
321 K, 1386.2 kPa	0.01682 ± 0.0009
321 K, 1431.8 kPa	0.01686 ± 0.0009
321 K, 1483.3 kPa	0.01689 ± 0.0009
321 K, 1538.9 kPa	0.01694 ± 0.00091
321 K, 1647 kPa	0.01703 ± 0.00091
321 K, 1693.1 kPa	0.01708 ± 0.00091
321 K, 1744.5 kPa	0.01713 ± 0.00091
321 K, 1788.6 kPa	0.01718 ± 0.00091
321 K, 1847.4 kPa	0.01724 ± 0.00091
